Results published in patent US20230021275A1, “Application of Nanosulfur in Tomato Fusarium Wilt Control” (Jiangnan University, priority 2021, published 2023).

What was measured:
[1] = tested on: F. oxysporum; test: Growth of pathogen colonies on PDA plates; type: cell-based; details: 100 mg/L
Excerpt: This may be because the nanosulfur could induce the systemic acquired resistance of plants and the control effect of the nanosulfur on the tomato fusarium wilt was better than the direct bactericidal effect thereof.

[2] = tested on: Fusarium oxysporum f sp. Lycopersici; test: Foliar application to tomatoes grown in infected soil (tomato fusarium wilt control); type: in vivo; details: foliar spraying 100 mg/L; for Fresh weight of above-ground part / Fresh weight of underground part / Incidence: 10 mL/plant, 6th and 8th week, 10th week
Excerpt: There were 5 levels of disease severity of tomatoes: 0: symptomless; 1: mildly stunted; 2: stunted; 3: leaves wilted and yellowed; and 4: dead. […] The highest disease severity level of tomatoes was Level 4. The total number of tomato plants in the treated group was 6. Test of biomass of above-ground part and underground part: Tomatoes were sampled destructively. The above-ground part and the underground part of the tomato were washed with ultrapure water three times. The above-ground part and the underground part of the tomato were dried up with filter paper. The above-ground part and the underground part were weighed using a balance. The obtained weights were respectively the biomass of the above-ground part and the underground part of the tomato. (1) Pathogenic bacteria (Fusarium oxysporum f sp. Lycopersici, the pathogen of tomato fusarium wilt) were added to dry soil at a concentration of 1×10^6 spores/g to obtain infected soil. (2) Tomato seeds were sowed in the infected soil. […] The cultivation was continued. In the meanwhile, tomato seeds were sowed in soil not infected with pathogenic bacteria, and cultivated normally with no sulfur solution applied, to obtain a healthy group. The cultivation of the tomatoes was continued until the 10th week. The tomatoes were examined for the disease severity. The tomatoes were sampled destructively. The fresh weights of the above-ground part and the underground part of the tomatoes were measured. The test results are as follows: (1) Pathogenic bacteria (F. oxysporum, the pathogen of tomato fusarium wilt) were added to dry soil at a concentration of 1×10^6 spores/g to obtain infected soil. (2) Tomato seeds were sowed in the infected soil. […] The cultivation was continued. In the meanwhile, tomato plants with no fertilizer applied were taken as the foliar disease group. When the tomatoes grew to the 10th week, the tomatoes were examined for the disease severity. The tomatoes were sampled destructively. The fresh weights of the above-ground part and the underground part of the tomatoes were measured.

Row | SMILES | Antibacterial effect relative to that of the 30-SNPs ([1]; 6 days) [times] | Reduction of the diameter of the pathogenic bacteria colonies ([1]; 6 days of exposure, compared with the foliar disease group) [%] | Effect on fresh weights of above-ground and underground part (biomass) compared with the disease group [2] | Effect on the incidence of tomato fusarium wilt compared with the disease group [2] | Fresh weight of above-ground part [2] | Fresh weight of underground part [2] [b g] | Incidence [2]
1 | Cc1cc(O)no1 [Hymexazol, hymexazol] | 3.05 | 34.5 | significantly increased | significantly reduced | 6.9 ± 0.9c g | 1.8 ± 0.5 | 0.42 ± 0.08cd
2 | O=S(=O)([O-])[O-].[Na+].[Na+] [Sodium sulfate, sodium sulfate] | – | – | no significant effects | – | 5.5 ± 0.7 g·days | 1.7 ± 0.2 | 0.64 ± 0.10a
